Assay results from US10294202B2, “Pyrrolidinones as herbicides” (FMC Corporation, priority 2013, dated 2019).

Experiments:
[1] = test system: crabgrass, large; test: Test A pre-/postemergence herbicide test; format: in vivo, Digitaria sanguinalis
How it was run: (§1)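 Both application timings used compounds in a non-phytotoxic solvent plus surfactant. Pre-emergence: soil sprayed directly after seeding into loam/sand. Post-emergence: foliage of 2–10 cm seedlings (1–2 leaves) sprayed. Injury rated ~10 days later, 0–100.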

[2] = test system: kochia; test: Test C pre-/postemergence herbicide test; format: in vivo, Kochia scoparia; details: for Kochia plant response rating: scale 0 to 100, 0 is no effect and 100 is complete control
Text: Seeds of plant species selected from blackgrass (Alopecurus myosuroides), ryegrass, Italian (Italian ryegrass, Lolium multiflorum), wheat (winter wheat, Triticum aestivum), galium (catchweed bedstraw, Galium aparine), corn (Zea mays), crabgrass, large (large crabgrass, Digitaria sanguinalis), foxtail, giant (giant foxtail, Setaria faberii), johnsongrass (Sorghum halepense), lambsquarters (Chenopodium album), morningglory (Ipomoea coccinea), nutsedge, yellow (yellow nutsedge, Cyperus esculentus), pigweed (Amaranthus retroflexus), ragweed (common ragweed, Ambrosia elatior), soybean (Glycine max), barnyardgrass (Echinochloa crus-galli), oilseed rape (Brassica napus), waterhemp (common waterhemp, Amaranthus rudis), kochia (Kochia scoparia), oat, wild (wild oat, Avena fatua), surinam grass (Brachiaria decumbens), foxtail, green (green foxtail, Setaria viridis), goosegrass (Eleusine indica), bromegrass, downy (downy bromegrass, Bromus tectorum), nightshade (eastern black nightshade, Solanum ptycanthum), cocklebur (common cocklebur, Xanthium strumarium), cupgrass, woolly (woolly cupgrass, Eriochloa villosa), bermudagrass (Cynodon dactylon), sunflower, (common oilseed sunflower, Helianthus annuus), Russian thistle (Salsola kali) and velvetleaf (Abutilon theophrasti) were planted into a blend of loam soil and sand and treated preemergence with test chemicals formulated in a non-phytotoxic solvent mixture which included a surfactant. At the same time, plants selected from these crop and weed species and also barley (winter barley, Hordeum vulgare), […]), chickweed (common chickweed, Stellaria media), deadnettle (henbit deadnettle, Lamium amplexicaule), and canarygrass (littleseed canarygrass, Phalaris minor) were planted in pots containing Redi-Earth® planting medium (Scotts Company, 14111 Scottslawn Road, Marysville, Ohio 43041) comprising spaghnum peat moss, vermiculite, wetting agent and starter nutrients and treated with postemergence applications of test chemicals formulated in the same manner. Plants ranged in height from 2 to 18 cm (1- to 4-leaf stage) for postemergence treatments. Treated plants and controls were maintained in a greenhouse for 13 to 15 days, after which time all species were compared to controls and visually evaluated. Plant response ratings, summarized in Table C, are based on a scale of 0 to 100 where 0 is no effect and 100 is complete control. A dash (-) response means no test result.

[3] = test system: ducksalad; test: Test C flooded paddy test; format: in vivo, Heteranthera limosa; details: Flood
How it was run: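 2-leaf stage; flood 3 cm over soil; compound into paddy water; depth held; greenhouse 13–15 d; visual % control vs untreated (0 = none, 100 = complete); "-" = not tested.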

[4] = test system: velvetleaf; test: Test A pre-/postemergence herbicide test; format: in vivo, Abutilon theophrasti
How it was run: as §1

[5] = test system: chickweed; test: Test C postemergence herbicide test; format: in vivo, Stellaria media
Text: At the same time, plants selected from these crop and weed species and also barley (winter barley, Hordeum vulgare), […]), chickweed (common chickweed, Stellaria media), deadnettle (henbit deadnettle, Lamium amplexicaule), and canarygrass (littleseed canarygrass, Phalaris minor) were planted in pots containing Redi-Earth® planting medium (Scotts Company, 14111 Scottslawn Road, Marysville, Ohio 43041) comprising spaghnum peat moss, vermiculite, wetting agent and starter nutrients and treated with postemergence applications of test chemicals formulated in the same manner. Plants ranged in height from 2 to 18 cm (1- to 4-leaf stage) for postemergence treatments. Treated plants and controls were maintained in a greenhouse for 13 to 15 days, after which time all species were compared to controls and visually evaluated. Plant response ratings, summarized in Table C, are based on a scale of 0 to 100 where 0 is no effect and 100 is complete control. A dash (-) response means no test result.

[6] = test system: blackgrass; test: Test A postemergence herbicide test; format: in vivo, Alopecurus myosuroides
How it was run: (§2)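 Injury was rated visually about 10 days after treatment on a 0 (no effect) to 100 (complete control) scale, compared with untreated plants. Test chemicals were sprayed postemergence onto greenhouse plants 2–10 cm high at one to two leaves, grown in a loam–sand blend.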

[7] = test system: galium; test: Test A postemergence herbicide test; format: in vivo, Galium aparine
How it was run: as §2

[8] = Postemergence, 125 g ai/ha, 0 to 100 scale, 0 no effect, 100 complete control
[9] = Postemergence, 500 g ai/ha, 0 to 100 scale (0 no effect, 100 complete control)
[10] = Preemergence, 125 g ai/ha, visual rating on 0 to 100 scale (0 no effect, 100 complete control)
[11] = preemergence, 500 g ai/ha, 0 to 100 scale
[12] = Preemergence, 62 g ai/ha, scale 0 to 100
[13] = Preemergence, 125 g ai/ha, scale 0 to 100 (0 no effect, 100 complete control)
[14] = 31 g ai/ha, scale of 0 to 100 where 0 is no effect and 100 is complete control, 13 to 15 days
[15] = 62 g ai/ha, scale of 0 to 100 where 0 is no effect and 100 is complete control, 13 to 15 days
[16] = 125 g ai/ha, scale of 0 to 100 where 0 is no effect and 100 is complete control, 13 to 15 days
[17] = Postemergence, 1000 g ai/ha, 0 to 100 scale (0 no effect, 100 complete control)
[18] = Preemergence, 1000 g ai/ha, visual rating on 0 to 100 scale (0 no effect, 100 complete control), approx. 10 days
[19] = 125 g ai/ha, visual rating on 0 to 100 scale (0 no effect, 100 complete control), approx. 10 days
[20] = 500 g ai/ha, 0 to 100 scale (0 no effect, 100 complete control)

## O=C1NCC(c2ccc(F)cc2)C1C(=O)Nc1ccccc1F (racemic) [Compound 16]
[1]; [8]
  Plant response rating, Crabgrass, Large: 90
[1]; [9]
  Plant response rating, Crabgrass, Large: 90
[1]; [10]
  Crabgrass, Large plant response rating: 90
[1]; [11]
  Plant response rating, Crabgrass, Large: 90
[2]; [12]
  Plant response rating, Kochia: 0
[2]; [13]
  Plant response rating, Kochia: 0
[3]; [14]
  Plant response rating, Ducksalad: 0
[3]; [15]
  Plant response rating, Ducksalad: 40
[3]; [16]
  Plant response rating, Ducksalad: 85
[3]; 250 g ai/ha, scale 0 to 100
  Plant response rating, Ducksalad: 100
[4]; [8]
  Plant response rating, Velvetleaf: 0
[4]; [9]
  Plant response rating, Velvetleaf: 0
[4]; [10]
  Velvetleaf plant response rating: 0
[4]; [11]
  Plant response rating, Velvetleaf: 0

## O=C1NCC(c2cc(F)c(F)c(F)c2)C1C(=O)Nc1ccccc1C(F)(F)F (racemic) [Compound 33]
[1]; [17]
  Plant response rating, Crabgrass, Large: 90
[1]; [18]
  Plant response rating, Crabgrass, Large: 90
[2]; [12]
  Plant response rating, Kochia: 0
[2]; [13]
  Plant response rating, Kochia: 0
[4]; [17]
  Plant response rating, Velvetleaf: 20
[4]; [18]
  Plant response rating, Velvetleaf: 0

## O=C1NCC(c2cc(F)c(F)c(F)c2)C1C(=O)Nc1ccccc1F (racemic) [Compound 34]
[1]; [17]
  Plant response rating, Crabgrass, Large: 90
[1]; [18]
  Plant response rating, Crabgrass, Large: 90
[2]; Postemergence, 31 g ai/ha, scale 0 (no effect) to 100 (complete control)
  Plant response rating, Kochia: 5
[2]; Postemergence, 62 g ai/ha, scale 0 to 100 (0 no effect, 100 complete control)
  Plant response rating, Kochia: 5
[2]; Postemergence, 125 g ai/ha, scale 0 to 100 (0 no effect, 100 complete control)
  Plant response rating, Kochia: 5
[2]; Postemergence, 250 g ai/ha, scale 0 to 100 (0 no effect, 100 complete control)
  Plant response rating, Kochia: 5
[2]; [12]
  Plant response rating, Kochia: 0
[2]; [13]
  Plant response rating, Kochia: 0
[5]; 31 g ai/ha, scale 0 (no effect) to 100 (complete control)
  Plant response rating, Chickweed: 0
[5]; 62 g ai/ha, scale 0 to 100 (0 no effect, 100 complete control)
  Plant response rating, Chickweed: 0
[5]; 125 g ai/ha, scale 0 to 100 (0 no effect, 100 complete control)
  Plant response rating, Chickweed: 5
[5]; 250 g ai/ha, scale 0 to 100 (0 no effect, 100 complete control)
  Plant response rating, Chickweed: 5
[4]; [17]
  Plant response rating, Velvetleaf: 20
[4]; [18]
  Plant response rating, Velvetleaf: 0

## Cc1ccccc1NC(=O)C1C(=O)NCC1c1cc(F)c(F)c(F)c1 (racemic) [Compound 35]
[1]; [17]
  Plant response rating, Crabgrass, Large: 90
[1]; [18]
  Plant response rating, Crabgrass, Large: 90
[2]; [12]
  Plant response rating, Kochia: 0
[2]; [13]
  Plant response rating, Kochia: 5
[4]; [17]
  Plant response rating, Velvetleaf: 0
[4]; [18]
  Plant response rating, Velvetleaf: 0

## O=C1NCC(c2ccc(Cl)c(F)c2)C1C(=O)Nc1ccccc1F (centres unmarked) [Compound 53]
[1]; [8]
  Plant response rating, Crabgrass, Large: 80
[1]; [9]
  Plant response rating, Crabgrass, Large: 80
[1]; [10]
  Crabgrass, Large plant response rating: 90
[1]; [11]
  Plant response rating, Crabgrass, Large: 90
[2]; [12]
  Plant response rating, Kochia: 0
[2]; [13]
  Plant response rating, Kochia: 0
[4]; [8]
  Plant response rating, Velvetleaf: 0
[4]; [9]
  Plant response rating, Velvetleaf: 0
[4]; [10]
  Velvetleaf plant response rating: 0
[4]; [11]
  Plant response rating, Velvetleaf: 0

## O=C1NCC(c2ccc(F)c(Cl)c2)C1C(=O)Nc1cccc(F)c1F (centres unmarked) [Compound 59]
[1]; [8]
  Plant response rating, Crabgrass, Large: 70
[1]; [9]
  Plant response rating, Crabgrass, Large: 90
[1]; [10]
  Crabgrass, Large plant response rating: 90
[1]; [11]
  Plant response rating, Crabgrass, Large: 90
[2]; [12]
  Plant response rating, Kochia: 0
[2]; [13]
  Plant response rating, Kochia: 10
[4]; [8]
  Plant response rating, Velvetleaf: 0
[4]; [9]
  Plant response rating, Velvetleaf: 0
[4]; [10]
  Velvetleaf plant response rating: 0
[4]; [11]
  Plant response rating, Velvetleaf: 0

## O=C1NCC(c2ccc3c(c2)OC(F)(F)O3)C1C(=O)Nc1cccc(F)c1F (centres unmarked) [Compound 62]
[1]; [8]
  Plant response rating, Crabgrass, Large: 80
[1]; [9]
  Plant response rating, Crabgrass, Large: 90
[1]; [10]
  Crabgrass, Large plant response rating: 90
[1]; [11]
  Plant response rating, Crabgrass, Large: 90
[2]; [12]
  Plant response rating, Kochia: 0
[2]; [13]
  Plant response rating, Kochia: 15
[4]; [8]
  Plant response rating, Velvetleaf: 0
[4]; [9]
  Plant response rating, Velvetleaf: 0
[4]; [10]
  Velvetleaf plant response rating: 0
[4]; [11]
  Plant response rating, Velvetleaf: 0

## O=C1NCC(c2cccc(Br)c2)C1C(=O)Nc1cccc(F)c1F (centres unmarked) [Compound 64]
[1]; [8]
  Plant response rating, Crabgrass, Large: 80
[1]; [9]
  Plant response rating, Crabgrass, Large: 80
[1]; [10]
  Crabgrass, Large plant response rating: 80
[1]; [11]
  Plant response rating, Crabgrass, Large: 90
[2]; [12]
  Plant response rating, Kochia: 0
[2]; [13]
  Plant response rating, Kochia: 20
[4]; [8]
  Plant response rating, Velvetleaf: 0
[4]; [9]
  Plant response rating, Velvetleaf: 30
[4]; [10]
  Velvetleaf plant response rating: 0
[4]; [11]
  Plant response rating, Velvetleaf: 0

## O=C1NCC(c2cccc(Br)c2)C1C(=O)Nc1ccccc1F (centres unmarked) [Compound 66]
[1]; [8]
  Plant response rating, Crabgrass, Large: 80
[1]; [9]
  Plant response rating, Crabgrass, Large: 80
[1]; [10]
  Crabgrass, Large plant response rating: 80
[1]; [11]
  Plant response rating, Crabgrass, Large: 90
[2]; Preemergence, 31 g ai/ha
  Kochia plant response rating: 0
[2]; [12]
  Plant response rating, Kochia: 0
[2]; [13]
  Plant response rating, Kochia: 10
[4]; [8]
  Plant response rating, Velvetleaf: 0
[4]; [9]
  Plant response rating, Velvetleaf: 0
[4]; [10]
  Velvetleaf plant response rating: 0
[4]; [11]
  Plant response rating, Velvetleaf: 0

## O=C1NCC(c2cccc(OC(F)(F)F)c2)C1C(=O)Nc1cccc(F)c1F (centres unmarked) [Compound 68]
[1]; [8]
  Plant response rating, Crabgrass, Large: 90
[1]; [9]
  Plant response rating, Crabgrass, Large: 90
[1]; [10]
  Crabgrass, Large plant response rating: 90
[1]; [11]
  Plant response rating, Crabgrass, Large: 90
[2]; Preemergence, 31 g ai/ha
  Kochia plant response rating: 0
[2]; [12]
  Plant response rating, Kochia: 0
[2]; [13]
  Plant response rating, Kochia: 0
[4]; [8]
  Plant response rating, Velvetleaf: 20
[4]; [9]
  Plant response rating, Velvetleaf: 20
[4]; [10]
  Velvetleaf plant response rating: 0
[4]; [11]
  Plant response rating, Velvetleaf: 0

## O=C1NCC(c2cccc(OC(F)F)c2)C1C(=O)Nc1cccc(F)c1F (centres unmarked) [Compound 324]
[6]; [19]
  Plant response rating, Blackgrass: 60
[6]; [20]
  Plant response rating, Blackgrass: 70
[7]; [19]
  Plant response rating, Galium: 40
[7]; [20]
  Plant response rating, Galium: 60
[3]; [14]
  Plant response rating, Ducksalad: 40
[3]; [15]
  Plant response rating, Ducksalad: 70
[3]; [16]
  Plant response rating, Ducksalad: 95
[3]; 250 g ai/ha, scale of 0 to 100 where 0 is no effect and 100 is complete control, 13 to 15 days
  Plant response rating, Ducksalad: 100
